Data on 1 molecule can be found in paper PMC8502973 (Frontiers in Physiology, 2021).

pEC50: −log10 of the molar value. “Also recorded” adds a separate entry of the source. Read-outs that look alike come from different tables or passages of the source. Positions of bridges follow the written chain, without caps; N, C: chain ends. Residues, ends and D or L forms follow the SMILES beside them. Groups on a side chain read outwards from the residue. *: point of attachment. PEG8 = NCCOCCOCCOCCOCCOCCOCCOCCOCCC(=O)O; Palmitoyl = CCCCCCCCCCCCCCCC(=O)*

A short description of series [1]: Long-term: gross motor activity and body temperature (Mini-Mitter transponders). The class given is in vivo, male DIO Sprague Dawley rats. The settings on record: 28-day study, n = 5 per group; first 12 days analysed. The source says: (§1) Male DIO Sprague Dawley rats (n = 24) were generated as outlined above and were 644.5 g (50 g) at the start of drug treatment. The animals were divided into three treatment groups (n = 8 each) balanced for body weight, body weight gain during baseline, food intake, and Lee Index [body weight^(1/3)/snout to anus length (mm)] ([Lee, 1929]; [Simson and Gold, 1982]) as an indicator of adiposity (Figure 2). In a subset of the animals (n = 5 per group, balanced for prior mentioned criteria), Mini-Mitter transponders (PDT-4000 E-Mitter, Respironics Inc.) were implanted posterior to the left scapula at least 9 days prior to start of baseline measures to ensure sufficient recovery time. Body temperature and gross motor activity were continuously recorded via these transponders. […] High fat diet and water were provided ad libitum and intake was recorded with daily hopper and water bottle weighs at time of body weight assessment just prior to drug administration. Blood samples were taken at start of intervention by tail vein bleeding and via cardiac puncture under an isoflurane induced surgical plane of anesthesia at euthanasia. Animals were euthanized on treatment day 29, 4 h after receiving a dose of their assigned treatment, via decapitation under isoflurane anesthesia immediately following blood draw. Body composition was assessed on carcasses.
For comparisons of mean longitudinal changes in body temperature and activity, only the first 12 days of treatment, divided into three 4-day phases, were included in the analysis. These 4-day phases allowed for analyses to consider the ASK1476 dose titration.

Series [2] can be described thus: Long-term (28-day) drug intervention: body weight. The series is classed as in vivo, male DIO Sprague Dawley rats. The settings on record: treatment days 9-28. The method, then: (§2) Sprague Dawley rats (male, ∼4 weeks of age, 51–75 g body weight) were switched from standard chow to a high fat diet (Research Diets, Diet # D12492, 60, 20, 20%kcal from fat, protein, and carbohydrate, respectively, 5.21 kcal/g; stored at −20°C). The rats were maintained on this diet for approximately 15 weeks prior to the start of experiments to develop a diet-induced overweight (DIO) model. Animals were individually housed on a 12 h/12 h light/dark cycle (lights on at 04:00 h) in a temperature (23°C) and humidity (mean 50%, SD 10%) controlled room. All body weight measurements were made just prior to the start of the dark cycle.
as §1
From treatment day 8 on the doses were maintained to assess long-term efficacy at a therapeutically meaningful dose.

The conditions of series [3]: ref Modi et al., 2016, cited from earlier work. The text has this: This property allows for reduction of the free fraction of ASK1476 available for enzymatic degradation. The pharmacokinetics study protocol for ASK1476 in mice and rats was described before ([Modi et al., 2016]).
The conditions of series [4]: sc and iv, rodents; ref Modi et al., 2016; cited from earlier work.
Series [5] can be described thus: Dose escalation: kaolin intake (pica, nausea/visceral malaise). The class given is in vivo, male DIO Sprague Dawley rats. On the procedure:
as §2
Sequential rounds of a 3-day baseline phase (vehicle treated), a 3-day treatment phase, and a washout phase (2–5 days as necessary) were tested. […] High fat diet was accessible to the rats from all but the last 6 h of the light cycle and water was provided ad libitum. This daily period of food restriction was used to prevent incidental feeding in the event animals were disturbed from their sleep by noise from surrounding rooms. To assess a potential pica response (nausea/visceral malaise) in animals, powdered kaolin (Sigma-Aldrich, K1512) was made available on drug treatment days with a restriction period similar to the high fat diet. Prior to the first experiment, rats were provided access to kaolin for 2 days so that they could familiarize themselves with it prior to start of testing. Food and kaolin intake were continuously recorded using AccuScan DietMax (currently OmniTech Electronics, Inc., Diet System) cages. The high fat diet was compressed in the food tray to form a solid block of food. This allows for more accurate meal size measurements by preventing the animals from removing entire pellets at time. All food and kaolin intake data were binned into 15-min intervals for analysis and the start of the 24-h food intake period aligned to the lights turning off in the animal room. Body weight was recorded, and treatment injections were administered just prior to the start of the dark cycle.

Series [6] concerns the target T1, human V2 receptor (Homo sapiens, UniProt P30518).
T1 construct: expressed in transfected cells; host or cells: CHO cells
The series can be described thus: V2R agonist activity, cAMP production by HTRF, stably transfected CHO cells. The series is classed as cell-based. The settings on record: HTRF detection, read-out: hV2R, EC50. The method, then:
V2R: Evaluation of the agonist activity of compounds at the human V2 receptor expressed in stably transfected CHO cells was conducted by measuring their effects on cAMP production using the HTRF detection method ([Cotte et al., 1998]).
Background: cAMP levels reflect the balance of adenylyl cyclase and phosphodiesterase activity.

Series [7] is described as follows: Toxicity / mortality. The series is classed as in vivo.
A short description of series [8]: Long-term: hormone and metabolic blood parameters. The series is classed as in vivo, male DIO Sprague Dawley rats.
Source text: as §1, with “Animals were euthanized on treatment day 29, 4 h after receiving a dose of their assigned treatment, via decapitation under isoflurane anesthesia immediately following blood draw.” left out
Commercially available enzyme-linked immunosorbent assays (ELISA) were used for quantitative assessment of leptin (MilliporeSigma, Burlington, MA) and insulin (MilliporeSigma, Burlington, MA); all with intra-assay CV < 4%. […]

T1 sequence (P30518 whole entry): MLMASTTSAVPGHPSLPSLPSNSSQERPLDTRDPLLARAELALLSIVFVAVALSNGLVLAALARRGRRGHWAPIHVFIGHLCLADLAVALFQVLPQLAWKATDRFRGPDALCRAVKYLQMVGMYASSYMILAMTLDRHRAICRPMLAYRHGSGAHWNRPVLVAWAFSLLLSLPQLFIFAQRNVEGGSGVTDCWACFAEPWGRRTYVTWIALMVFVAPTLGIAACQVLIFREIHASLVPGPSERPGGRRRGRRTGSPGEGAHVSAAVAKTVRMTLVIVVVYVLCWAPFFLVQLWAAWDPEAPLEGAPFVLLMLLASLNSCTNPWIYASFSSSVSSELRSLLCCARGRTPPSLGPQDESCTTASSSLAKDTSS

What is called pEC50 is −log10 of the EC50, conventionally taken in molar units. For `CCCCCCCCCCCCCCCC(=O)NCCOCCOCCOCCOCCOCCOCCOCCOCCC(=O)NCCCC[C@H](NC(=O)CNC(=O)[C@@H]1CSSC[C@H](N)C(=O)N[C@@H](Cc2ccc(O)cc2)C(=O)N[C@@H]([C@@H](C)CC)C(=O)N[C@@H](CCC(N)=O)C(=O)N[C@@H](CC(N)=O)C(=O)N1)C(=O)NCC(N)=O` [ASK1476] (H-CYIQNCGK([PEG8-Palmitoyl])G-NH2; disulfide 1-6), the “locomotor activity or body temperature” value in series [1] is given as “no effects were detected on locomotor activity or body temperature; also recorded: did not find any evidence”. Further, the “weight stability during final 20 days” value in series [2] is “remained weight stable”. In series [3] (iv, rats, compared to OXT), the “half-life vs OXT” value is recorded as “extended half-life”, the “plasma clearance vs OXT” value is on record as “reduced plasma clearance” and the “steady-state volume of distribution vs OXT” value is recorded as “increased steady-state volume of distribution”. For the same molecule, in series [3] (sc, depot formulation), the “brain to plasma concentration ratio (distribution)” value is recorded as “almost exclusive compartmentalization of the molecule to plasma”, the “concentrations in the central compartments” value is given as “only minimal concentrations detectable” and the plasma exposure result was “prolonged exposure in the plasma”. For the same molecule, the “total maximal plasma concentration (Cmax)” value in series [3] (sc, mice, at 2 h post-dose) is “improved total maximal plasma concentration (Cmax)”. Moreover, in series [3] (sc, mice), the half-life result is given as “extended half-life”. Besides, in series [4], the “half-life vs OXT” value is listed as “increased half-life” and the “plasma protein binding vs OXT” value is listed as “increased plasma protein binding”. The “relationship between kaolin consumption and baseline normalized food intake” value in series [5] (ASK1476 6, 15, 30, 60, 120 and 300 nmol/kg) is recorded as “no significant association”. Further, in series [5] (ASK1476 dosing spectrum), the “visceral malaise signal (notably high kaolin intake in a few animals)” value is given as “may result in visceral malaise in a subset of animals”. Moreover, the “kaolin intake of several animals at higher doses” value in series [5] (ASK1476 ≥ 30 nmol/kg/d, several animals, not seen with OXT) is on record as greater than 4 g/day. The “kaolin intake, trend with dose” value in series [5] (increasing ASK1476 doses, not significant) is on record as “increasing trend”. Also, the “kaolin intake at low doses” value in series [5] (low doses, sc once daily) is reported as “below 4 g/d”. In addition, the “kaolin intake, effect of treatment” value in series [5] (sc once daily, ASK1476 6-300 nmol/kg F(1.80, 12.59) = 2.26, p = 0.148, OXT 20-1200 nmol/kg F(1.51, 10.52) = 1.73, p = 0.223) is “no significant effect of treatment”. Also, the negative logarithm of the EC50 (pEC50) in series [6] was 9.44. Also, in series [7] (150 nmol/kg intraperitoneal, unpublished dosing experiment), the death result is “death of a rat”. Further, the death entry in series [7] (300 nmol/kg daily sc, after third dose, cause of death not established) is “one rat was found dead”. In addition, in series [8] (ASK1476, 95% CI −2.1 to −13.2, p = 0.006), the “serum ALT, difference vs vehicle” value is −7.6 U/L. Besides, the “ALT, post-treatment” value in series [8] (after 28-day Tx, serum, n = 8, Mean ± SD, ASK1476 ** p < 0.01 vs vehicle, ANOVA p 0.009) is on record as 0.440.06** μmol/(sL).
